# From patent US20110294843A1, “ADMINISTRATION SCHEME OF POLAR OPIOID METABOLITES FOR POST-OPERATIVE PAIN MANAGEMENT” (PAION UK Limited, priority 2008, published 2011)
# Where two headings read alike, the source gives them in different places.
# Key:
# [1] = Partition coefficient (logP) between aqueous buffer and octanol; conditions: phosphate/n-octanol
# Excerpt: As stated above, the opioid metabolites according to the invention are polar metabolites. As understood hereinafter the term “polar” means a higher polarity as compared to the unpolar moφhine. The polar nature of a compound can be determined by measuring its partition coefficient between an aqueous buffer and an organic solvent such as octanol. […] This depends on the specific system.
# [2] = test system: patients with pain treatment after surgery; assay: Meta analysis of four clinical studies with M6G pain treatment after surgery
# Excerpt: The four studies M6G001, M6G012, M6G015 and M6G022 are described in the following.
# The following variables were included in the meta analysis:
# Nausea (none, mild, moderate, severe)
# Sedation (none, mild, moderate, severe)
# Pain (none, mild, moderate, severe)
# [3] = test system: patients following total knee-replacement surgery; assay: M6G015 study: pain following total knee-replacement surgery; format: in vivo, human; conditions: 10, 20, 30 mg/70 kg slow IV, PCA morphine allowed
# Method: Patients received a single dose of study treatment 150 minutes after the administration of the nerve block. […] The complete study has recently been reported by Dahan et al. (Eur J Pain, 2008; 12(4): 403-411).
# [4] = Pharmacokinetics of M6G at single and multiple intravenous doses in healthy volunteers; format: in vivo, human; conditions: for MRT inf: read-out: MRT0-∞; for Vd: read-out: Vss; for half-life: read-out: t1/2 (converted)
# Method: Healthy male and female subjects were divided into two groups (A and B) with 12 in each. Group A received three single intravenous infusions of M6G over 5 mins at levels of 15, 30 and 45 mg/70 kg in random order, having taken 50 mg of naloxone orally 24 hrs beforehand. There was a seven-day wash-out period between each dose. Blood samples were taken pre-dose and at the following time-points: 3, 5, 15, 30 mins and 1, 2, 3, 4, 6, 12 and 24 hrs after the start of the infusion. Group, B received five, 15 mg/70 kg, intravenous infusions of M6G, each over five minutes, at 6-hourly intervals, having taken a 50 mg oral dose of naloxone 24 hrs before the first infusion. Blood samples were taken before each of the 5 doses, and at 3, 5, 15, 30 mins and at 1, 2, 3 and 4 hrs after the initiation of the 1st and 5th infusions and at 6 hrs after the 5th dose. Vital signs (supine blood pressure, pulse, respiratory rate and oral temperature), respiration rate, pulse oximetry and adverse events were monitored during the study. Plasma levels of M6G were measured using HPLC/ms/ms.
# [5] = both sexes, human, plasma, intravenous, 15 mg/70 kg, multiple dose, Dose 1-15 mg, Geometric Mean
# [6] = both sexes, human, plasma, intravenous, 15 mg/70 kg, multiple dose, Dose 1-15 mg, Mean
# [7] = both sexes, human, plasma, intravenous, 15 mg/70 kg, multiple dose, Dose 1-15 mg, Median
# [8] = both sexes, human, plasma, intravenous, 15 mg/70 kg, multiple dose, Dose 5-15 mg, Geometric Mean
# [9] = both sexes, human, plasma, intravenous, 15 mg/70 kg, multiple dose, Dose 5-15 mg, Mean
# [10] = both sexes, human, plasma, intravenous, 15 mg/70 kg, multiple dose, Dose 5-15 mg, Median
# [11] = both sexes, human, plasma, iv, 15 mg/70 kg, single 5 min iv infusion 15 mg, Geometric Mean
compound,measurement,setting,value
"CN1CC[C@]23c4c5ccc(O)c4O[C@H]2[C@@H](OC2OC(C(=O)O)C(O)C(O)C2O)C=CC3[C@H]1C5 (stereo partly drawn) [M6G, (5α,6α)-7,8-Didehydro-4,5-epoxy-3-hydroxy-17-methylmorphinan-β-yl-β-D-glucopyranosiduronic acid]",logP,[1],-2.4
same,patients with moderate to severe sedation,"[2]; human, in vivo, intravenous",63.5%
same,patients with moderate to severe pain,[2]; time window 0 to 6 hours,50.5%
same,patients with moderate to severe pain,[2]; time window 6-24 hours,19.1%
same,patients with moderate to severe nausea,[2]; worst assessment,23.9%
same,patients with vomiting,[2]; worst assessment,26.0%
same,patients' opinion of pain relief compared with placebo,[3],no statistically significant differences
same,average peak concentrations higher following Dose 5 than Dose 1,[4]; 15 mg 6-hourly iv infusions,approximately 25%
same,"dose proportionality of exposure (Cmax, AUC0-t, AUC0-∞)","[4]; 15, 30 and 45 mg single iv infusions",directly dose-proportional
same,concentration at 6 h,"[4]; both sexes, human, plasma, 15 mg/70 kg, 6 hours after each dose, 15 mg 6-hourly iv, read-out: trough levels",63.9 ± 16.5 ng/mL
same,clearance,[4]; [5],119 mL/min
same,AUC(0-t),"[4]; both sexes, human, plasma, intravenous, 15 mg/70 kg, multiple dose, Dose 1-15 mg, Geometric Mean, read-out: AUC0-6",1910 ng·h/mL
same,AUC(0-inf),"[4]; both sexes, human, plasma, intravenous, 15 mg/70 kg, multiple dose, Dose 1-15 mg, Geometric Mean, read-out: AUC0-∞",2110 ng·h/mL
same,Cmax,"[4]; both sexes, human, plasma, intravenous, 15 mg/70 kg, multiple dose, Dose 1-15 mg, Geometric Mean, read-out: Cmax",1840 ng/mL
same,MRT inf,[4]; [5],2.07 h
same,Vd,[4]; [5],14.7 L
same,half-life,[4]; [5],1.71 h
same,clearance,[4]; [6],119 mL/min
same,AUC(0-t),"[4]; both sexes, human, plasma, intravenous, 15 mg/70 kg, multiple dose, Dose 1-15 mg, Mean, read-out: AUC0-6",1920 ng·h/mL
same,AUC(0-inf),"[4]; both sexes, human, plasma, intravenous, 15 mg/70 kg, multiple dose, Dose 1-15 mg, Mean, read-out: AUC0-∞",2130 ng·h/mL
same,Cmax,"[4]; both sexes, human, plasma, intravenous, 15 mg/70 kg, multiple dose, Dose 1-15 mg, Mean, read-out: Cmax",1980 ng/mL
same,MRT inf,[4]; [6],2.1 h
same,Vd,[4]; [6],14.8 L
same,half-life,[4]; [6],1.73 h
same,clearance,[4]; [7],113 mL/min
same,AUC(0-t),"[4]; both sexes, human, plasma, intravenous, 15 mg/70 kg, multiple dose, Dose 1-15 mg, Median, read-out: AUC0-6",1950 ng·h/mL
same,AUC(0-inf),"[4]; both sexes, human, plasma, intravenous, 15 mg/70 kg, multiple dose, Dose 1-15 mg, Median, read-out: AUC0-∞",2210 ng·h/mL
same,Cmax,"[4]; both sexes, human, plasma, intravenous, 15 mg/70 kg, multiple dose, Dose 1-15 mg, Median, read-out: Cmax",2090 ng/mL
same,MRT inf,[4]; [7],2.17 h
same,Vd,[4]; [7],14.2 L
same,half-life,[4]; [7],1.65 h
same,AUC,"[4]; both sexes, human, plasma, intravenous, 15 mg/70 kg, multiple dose, Dose 5-15 mg, Geometric Mean, read-out: AUC24-30",2070 ng·h/mL
same,AUC,"[4]; both sexes, human, plasma, intravenous, 15 mg/70 kg, multiple dose, Dose 5-15 mg, Geometric Mean, read-out: AUC24-∞",2170 ng·h/mL
same,Cmax,"[4]; both sexes, human, plasma, intravenous, 15 mg/70 kg, multiple dose, Dose 5-15 mg, Geometric Mean, read-out: Cmax",2290 ng/mL
same,Vd,[4]; [8],11.9 L
same,half-life,[4]; [8],1.49 h
same,AUC,"[4]; both sexes, human, plasma, intravenous, 15 mg/70 kg, multiple dose, Dose 5-15 mg, Mean, read-out: AUC24-30",2080 ng·h/mL
same,AUC,"[4]; both sexes, human, plasma, intravenous, 15 mg/70 kg, multiple dose, Dose 5-15 mg, Mean, read-out: AUC24-∞",2180 ng·h/mL
same,Cmax,"[4]; both sexes, human, plasma, intravenous, 15 mg/70 kg, multiple dose, Dose 5-15 mg, Mean, read-out: Cmax",2370 ng/mL
same,Vd,[4]; [9],12 L
same,half-life,[4]; [9],1.5 h
same,AUC,"[4]; both sexes, human, plasma, intravenous, 15 mg/70 kg, multiple dose, Dose 5-15 mg, Median, read-out: AUC24-30",2090 ng·h/mL
same,AUC,"[4]; both sexes, human, plasma, intravenous, 15 mg/70 kg, multiple dose, Dose 5-15 mg, Median, read-out: AUC24-∞",2210 ng·h/mL
same,Cmax,"[4]; both sexes, human, plasma, intravenous, 15 mg/70 kg, multiple dose, Dose 5-15 mg, Median, read-out: Cmax",2370 ng/mL
same,Vd,[4]; [10],12.2 L
same,half-life,[4]; [10],1.56 h
same,AUC(0-t),"[4]; both sexes, human, plasma, intravenous, 15 mg/70 kg, single 5 min infusion 15 mg/70 kg, read-out: AUC0-t, Geometric LS means",1760 ng·h/mL
same,AUC(0-inf),"[4]; both sexes, human, plasma, intravenous, 15 mg/70 kg, single 5 min infusion 15 mg/70 kg, read-out: AUC0-∞, Geometric LS means",1880 ng·h/mL
same,Cmax,"[4]; both sexes, human, plasma, intravenous, 15 mg/70 kg, single 5 min infusion 15 mg/70 kg, read-out: Cmax, Geometric LS means",1740 ng/mL
same,AUC(0-t),"[4]; both sexes, human, plasma, intravenous, 30 mg/70 kg, single 5 min infusion 30 mg/70 kg, read-out: AUC0-t, Geometric LS means",3880 ng·h/mL
same,AUC(0-inf),"[4]; both sexes, human, plasma, intravenous, 30 mg/70 kg, single 5 min infusion 30 mg/70 kg, read-out: AUC0-∞, Geometric LS means",3970 ng·h/mL
same,Cmax,"[4]; both sexes, human, plasma, intravenous, 30 mg/70 kg, single 5 min infusion 30 mg/70 kg, read-out: Cmax, Geometric LS means",3700 ng/mL
same,AUC(0-t),"[4]; both sexes, human, plasma, intravenous, 45 mg/70 kg, single 5 min infusion 45 mg/70 kg, read-out: AUC0-t, Geometric LS means",5750 ng·h/mL
same,AUC(0-inf),"[4]; both sexes, human, plasma, intravenous, 45 mg/70 kg, single 5 min infusion 45 mg/70 kg, read-out: AUC0-∞, Geometric LS means",5850 ng·h/mL
same,Cmax,"[4]; both sexes, human, plasma, intravenous, 45 mg/70 kg, single 5 min infusion 45 mg/70 kg, read-out: Cmax, Geometric LS means",5720 ng/mL
same,clearance,[4]; [11],131 mL/min
same,AUC(0-inf),"[4]; both sexes, human, plasma, iv, 15 mg/70 kg, single 5 min iv infusion 15 mg, Geometric Mean, read-out: AUC0-∞",1910 ng·h/mL
same,Cmax,"[4]; both sexes, human, plasma, iv, 15 mg/70 kg, single 5 min iv infusion 15 mg, Geometric Mean, read-out: Cmax",1750 ng/mL
same,MRT inf,[4]; [11],1.64 h
same,Vd,[4]; [11],12.9 L
